Assay results from PubChem BioAssay AID1963868 (Molecular Pharmacology Branch, DTP, NCI, 2024).

Tested on: KRAS PDC tumor spheroids (HUVEC+MSC), viability
Assay: Anticancer human tumor 254851-301-R-J1-PDC patient-derived colon carcinoma cell line growth inhibition [KRAS2]
Conditions: for viability, T/C: stronger effect = lower value
In short: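 KRAS-mutant tumor cells were grown as spheroids with HUVEC endothelial cells and human MSCs as stroma. Targeted agents were tested alone and with KRAS pathway inhibitors. Doses started at or near clinical Cmax, or 10 microM, descending half-log.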

[1] = curve of first compound, second compound 0.1 µM
[2] = curve of first compound, second compound 0.316 µM
[3] = curve of first compound, second compound 1 µM
[4] = curve of first compound, second compound 3.16 µM
[5] = second compound 0.1 µM, first compound 0.0316 µM
[6] = second compound 0.1 µM, first compound 0.1 µM
[7] = second compound 0.1 µM, first compound 0.316 µM
[8] = second compound 0.1 µM, first compound 1 µM
[9] = second compound 0.1 µM, first compound 3.16 µM
[10] = second compound 0.1 µM, first compound 10 µM
[11] = second compound 0.316 µM, first compound 0.0316 µM
[12] = second compound 0.316 µM, first compound 0.1 µM
[13] = second compound 0.316 µM, first compound 0.316 µM
[14] = second compound 0.316 µM, first compound 1 µM
[15] = second compound 0.316 µM, first compound 3.16 µM
[16] = second compound 0.316 µM, first compound 10 µM
[17] = second compound 1 µM, first compound 0.0316 µM
[18] = second compound 1 µM, first compound 0.1 µM
[19] = second compound 1 µM, first compound 0.316 µM
[20] = second compound 1 µM, first compound 1 µM
[21] = second compound 1 µM, first compound 3.16 µM
[22] = second compound 1 µM, first compound 10 µM
[23] = second compound 3.16 µM, first compound 0.0316 µM
[24] = second compound 3.16 µM, first compound 0.1 µM
[25] = second compound 3.16 µM, first compound 0.316 µM
[26] = second compound 3.16 µM, first compound 1 µM
[27] = second compound 3.16 µM, first compound 3.16 µM
[28] = second compound 3.16 µM, first compound 10 µM
[29] = curve of first compound, second compound 10 µM
[30] = second compound 10 µM, first compound 0.0316 µM
[31] = second compound 10 µM, first compound 0.1 µM
[32] = second compound 10 µM, first compound 0.316 µM
[33] = second compound 10 µM, first compound 1 µM
[34] = second compound 10 µM, first compound 3.16 µM
[35] = second compound 10 µM, first compound 10 µM
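Note: spheroids exposed to compounds for seven days before readout.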
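Throughout, for viability, T/C: 100% = DMSO vehicle control luminescence of the spheroids.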

SMILES	IC50 [1]	IC50 [2]	IC50 [3]	IC50 [4]	viability, T/C [5]	viability, T/C [6]	viability, T/C [7]	viability, T/C [8]	viability, T/C [9]	viability, T/C [10]	viability, T/C [11]	viability, T/C [12]	viability, T/C [13]	viability, T/C [14]	viability, T/C [15]	viability, T/C [16]	viability, T/C [17]	viability, T/C [18]	viability, T/C [19]	viability, T/C [20]	also measured
CCNC(=O)CC1N=C(c2ccc(Cl)cc2)c2cc(OC)ccc2-n2c(C)nnc21 (centres undefined) + C=CC(=O)N1CCN(c2nc(OCC3CCCN3C)nc3c2CCN(c2cccc4cccc(C)c24)C3)CC1CC#N	> 10 µM	> 10 µM	3.64 µM	< 0.0316 µM	102%	87.8%	94.6%	78.9%	73.5%	68.9%	105%	92.9%	94.7%	72.6%	68%	73.4%	66.2%	66.5%	61.2%	52.9%	IC50 (curve of first compound, second compound 0.0316 µM): > 10 µM; viability, T/C (second compound 0.0316 µM, first compound 0.0316 µM): 98.7%; viability, T/C (second compound 0.0316 µM, first compound 0.1 µM): 90.4%; viability, T/C (second compound 0.0316 µM, first compound 0.316 µM): 88.5%; viability, T/C (second compound 0.0316 µM, first compound 1 µM): 92.2%; viability, T/C (second compound 0.0316 µM, first compound 3.16 µM): 80.6%; viability, T/C (second compound 0.0316 µM, first compound 10 µM): 66.9%; viability, T/C [21]: 48.9%; viability, T/C [22]: 47.6%; viability, T/C [23]: 46.9%; viability, T/C [24]: 53.7%; viability, T/C [25]: 46.1%; viability, T/C [26]: 43.5%; viability, T/C [27]: 29.9%; viability, T/C [28]: 23.3%
COc1cc2nc(C)nc(NC(C)c3cc(N)cc(C(F)(F)F)c3)c2cc1OC1CCOC1 (centres undefined)																					viability, T/C (compound 1 µM): 92.5% [middle of 17 runs]; IC50 (compound alone, run of 07/12/2021): > 10 µM; IC50 (compound alone, run of 07/19/2021): > 10 µM; IC50 (compound alone, run of 07/26/2021): > 10 µM
CC1(C)CCC(CN2CCN(c3ccc(C(=O)NS(=O)(=O)c4ccc(NCC5CCOCC5)c([N+](=O)[O-])c4)c(Oc4cnc5[nH]ccc5c4)c3)CC2)=C(c2ccc(Cl)cc2)C1 + COc1cc2nc(C)nc(NC(C)c3cc(N)cc(C(F)(F)F)c3)c2cc1OC1CCOC1	> 10 µM	> 10 µM	> 10 µM	3.72 µM	103%	95%	95.7%	97.6%	91.2%	83.2%	86.5%	83.9%	92%	79.3%	88.6%	66.4%	88.7%	88.1%	79.8%	78.1%	IC50 [29]: 1.73 µM; viability, T/C [21]: 74.9%; viability, T/C [22]: 49.2%; viability, T/C [23]: 82.2%; viability, T/C [24]: 89.3%; viability, T/C [25]: 81.2%; viability, T/C [26]: 76.4%; viability, T/C [27]: 53.3%; viability, T/C [28]: 29.6%; viability, T/C [30]: 86.6%; viability, T/C [31]: 83.8%; viability, T/C [32]: 72.5%; viability, T/C [33]: 73.9%; viability, T/C [34]: 24.2%; viability, T/C [35]: 6.7%
CC(C)NCC(C(=O)N1CCN(c2ncnc3c2C(C)CC3O)CC1)c1ccc(Cl)cc1 (centres undefined) + COc1cc2nc(C)nc(NC(C)c3cc(N)cc(C(F)(F)F)c3)c2cc1OC1CCOC1	> 10 µM	> 10 µM	2.02 µM	3.16 µM	107%	99.7%	99.7%	91.5%	39.8%	75.7%	101%	98.2%	84.3%	84.1%	31.1%	71.4%	85.2%	100%	82.2%	78.5%	IC50 [29]: 0.514 µM; viability, T/C [21]: 32.2%; viability, T/C [22]: 13.7%; viability, T/C [23]: 85.6%; viability, T/C [24]: 83.2%; viability, T/C [25]: 88.4%; viability, T/C [26]: 44.5%; viability, T/C [27]: 32.5%; viability, T/C [28]: 75.1%; viability, T/C [30]: 75.3%; viability, T/C [31]: 82%; viability, T/C [32]: 56.1%; viability, T/C [33]: 41.2%; viability, T/C [34]: 15.5%; viability, T/C [35]: 29.4%
CCNC(=O)CC1N=C(c2ccc(Cl)cc2)c2cc(OC)ccc2-n2c(C)nnc21 (centres undefined) + CNCc1ccccc1-c1csc(C(C)Nc2nc(C)nc3cc(OC)c(OC)cc23)c1	> 10 µM	> 10 µM	> 10 µM	< 0.0316 µM	106%	91.1%	90.4%	99.1%	96%	78.6%	103%	111%	98.3%	92.9%	92.4%	81.9%	90.4%	101%	92.2%	100%	IC50 [29]: < 0.0316 µM; viability, T/C [21]: 92.1%; viability, T/C [22]: 73.8%; viability, T/C [23]: 44.8%; viability, T/C [24]: 43.3%; viability, T/C [25]: 38%; viability, T/C [26]: 31.3%; viability, T/C [27]: 34.4%; viability, T/C [28]: 31%; viability, T/C [30]: 0.08%; viability, T/C [31]: 0.08%; viability, T/C [32]: 0.08%; viability, T/C [33]: 0.08%; viability, T/C [34]: 0.07%; viability, T/C [35]: 0.45%
